Data taken from patent publication US20250179051A1, “PYRIMIDINLY-OXY-QUINOLINE BASED HERBICIDAL COMPOUNDS” (SYNGENTA CROP PROTECTION AG, priority 2022, published 2025).

Key:
Assay type in all cases: in vivo
Conditions in all cases: 250 g/ha, evaluated after 13 days, five-point scale
[1] = system: Ipomoea hederacea (IPOHE); test: Post-emergence herbicide glasshouse test
Procedure: (§1) Seeds of a variety of test species are sown in standard soil in pots Amaranthus retoflexus (AMARE), Amaranthus palmeri (AMAPA), Echinochloa crus-galli (ECHCG), Ipomoea hederacea (IPOHE), Setaria faberi (SETFA). After cultivation for one day (pre-emergence) or after 8 days cultivation (post-emergence) under controlled conditions in a glasshouse (at 24/16° C., day/night; 14 hours light; 65% humidity), the plants are sprayed with an aqueous spray solution derived from the formulation of the technical active ingredient in acetone/water (50:50) solution containing 0.5% Tween 20 (polyoxyethelyene sorbitan monolaurate, CAS RN 9005-64-5). Compounds are applied at 250 g/ha unless otherwise stated. The test plants are then grown in a glasshouse under controlled conditions in a glasshouse (at 24/16° C., day/night; 14 hours light; 65% humidity) and watered twice daily. After 13 days for pre and post-emergence, the test is evaluated for the percentage damage caused to the plant. The biological activities are shown in the following table on a five-point scale (5=81-100%; 4=61-80%; 3=41-60%; 2=21-40%; 1=0-20%).

[2] = system: Setaria faberi (SETFA); test: Post-emergence herbicide glasshouse test
Procedure: as §1

[3] = system: Amaranthus retoflexus (AMARE); test: Post-emergence herbicide glasshouse test
Procedure: as §1

[4] = system: Amaranthus palmeri (AMAPA); test: Post-emergence herbicide glasshouse test
Procedure: as §1

[5] = system: Echinochloa crus-galli (ECHCG); test: Post-emergence herbicide glasshouse test
Procedure: as §1

[6] = system: Ipomoea hederacea (IPOHE); test: Pre-emergence herbicide glasshouse test
Procedure: as §1

[7] = system: Setaria faberi (SETFA); test: Pre-emergence herbicide glasshouse test
Procedure: as §1

[8] = system: Amaranthus retoflexus (AMARE); test: Pre-emergence herbicide glasshouse test
Procedure: as §1

[9] = system: Amaranthus palmeri (AMAPA); test: Pre-emergence herbicide glasshouse test
Procedure: as §1

[10] = system: Echinochloa crus-galli (ECHCG); test: Pre-emergence herbicide glasshouse test
Procedure: as §1

| SMILES | percentage damage caused to the plant, IPOHE [1] | percentage damage caused to the plant, SETFA [2] | percentage damage caused to the plant, AMARE [3] | percentage damage caused to the plant, AMAPA [4] | percentage damage caused to the plant, ECHCG [5] | percentage damage caused to the plant, IPOHE [6] | percentage damage caused to the plant, SETFA [7] | percentage damage caused to the plant, AMARE [8] | percentage damage caused to the plant, AMAPA [9] | percentage damage caused to the plant, ECHCG [10] |
| --- | --- | --- | --- | --- | --- | --- | --- | --- | --- | --- |
| CC(Br)c1nc(C(F)(F)F)nc2cccc(Oc3ncc(Cl)cn3)c12 (stereo not drawn) [Compound 1.001, 4-(1-bromoethyl)-5-(5-chloropyrimidin-2-yl)oxy-2-(trifluoromethyl)quinazoline] | 3 (3=41-60%) | 1 (1=0-20%) | 3 (3=41-60%) | 3 (3=41-60%) | 1 (1=0-20%) | 1 (1=0-20%) | 2 (2=21-40%) | 2 (2=21-40%) | 3 (3=41-60%) | 1 (1=0-20%) |
| CC(=NOCC1CC1)c1nc(C(F)(F)F)nc2cccc(Oc3ncc(Cl)cn3)c12 [Compound 1.003] | 1 (1=0-20%) | 1 (1=0-20%) | 1 (1=0-20%) | 1 (1=0-20%) | 1 (1=0-20%) | 1 (1=0-20%) | 1 (1=0-20%) | 1 (1=0-20%) | 1 (1=0-20%) | 1 (1=0-20%) |
| FC(F)(F)c1nc(CCC=NOCC2CC2)c2c(Oc3ncc(Cl)cn3)cccc2n1 [Compound 1.005] | 2 (2=21-40%) | 4 (4=61-80%) | 4 (4=61-80%) | 5 (5=81-100%) | 4 (4=61-80%) | 1 (1=0-20%) | 5 (5=81-100%) | 3 (3=41-60%) | 5 (5=81-100%) | 4 (4=61-80%) |
| CCON=CCc1nc(C(F)(F)F)nc2cccc(Oc3ncc(Cl)cn3)c12 [Compound 1.006] | 1 (1=0-20%) | 1 (1=0-20%) | 3 (3=41-60%) | 2 (2=21-40%) | 1 (1=0-20%) | 1 (1=0-20%) | 1 (1=0-20%) | 1 (1=0-20%) | 3 (3=41-60%) | 1 (1=0-20%) |
| CON=CCc1nc(C(F)(F)F)nc2cccc(Oc3ncc(Cl)cn3)c12 [Compound 1.007] | 1 (1=0-20%) | 1 (1=0-20%) | 2 (2=21-40%) | 2 (2=21-40%) | 1 (1=0-20%) | 1 (1=0-20%) | 1 (1=0-20%) | 1 (1=0-20%) | 1 (1=0-20%) | 1 (1=0-20%) |
| FC(F)(F)c1nc(CC=NOCC2CC2)c2c(Oc3ncc(Cl)cn3)cccc2n1 [Compound 1.008, 2-[5-(5-chloropyrimidin-2-yl)oxy-2-(trifluoromethyl)quinazolin-4-yl]-N-(cyclopropylmethoxy) ethanimine] | 1 (1=0-20%) | 1 (1=0-20%) | 4 (4=61-80%) | 4 (4=61-80%) | 2 (2=21-40%) | 1 (1=0-20%) | 1 (1=0-20%) | 1 (1=0-20%) | 2 (2=21-40%) | 1 (1=0-20%) |
| CCO/N=C/CCc1nc(C(F)(F)F)nc2cccc(Oc3ncc(Cl)cn3)c12 [Compound 1.009] | 5 (5=81-100%) | 5 (5=81-100%) | 5 (5=81-100%) | 5 (5=81-100%) | 5 (5=81-100%) | 1 (1=0-20%) | 5 (5=81-100%) | 5 (5=81-100%) | 5 (5=81-100%) | 5 (5=81-100%) |
| CN(C)/C=C/c1nc(C(F)(F)F)nc2cccc(Oc3ncc(Cl)cn3)c12 [Compound 1.010, 2-[5-(5-chloropyrimidin-2-yl)oxy-2-(trifluoromethyl)quinazolin-4-yl]-N,N-dimethyl-ethenamine] | 1 (1=0-20%) | 1 (1=0-20%) | 3 (3=41-60%) | 3 (3=41-60%) | 1 (1=0-20%) | 1 (1=0-20%) | 1 (1=0-20%) | 2 (2=21-40%) | 2 (2=21-40%) | 1 (1=0-20%) |
| Fc1ccc(-c2nc(C(F)(F)F)nc3cccc(Oc4ncc(Cl)cc4F)c23)cc1 [Compound 1.040] | 2 (2=21-40%) | 1 (1=0-20%) | 2 (2=21-40%) | – | 1 (1=0-20%) | 1 (1=0-20%) | 1 (1=0-20%) | 1 (1=0-20%) | – | 1 (1=0-20%) |
| Fc1ccc(-c2nc(C(F)(F)F)nc3cccc(Oc4ncc(Cl)cn4)c23)cc1 [Compound 1.042] | 3 (3=41-60%) | 1 (1=0-20%) | 3 (3=41-60%) | – | 1 (1=0-20%) | 1 (1=0-20%) | 1 (1=0-20%) | 1 (1=0-20%) | – | 1 (1=0-20%) |
| C=CCCc1nc(C(F)(F)F)nc2cccc(Oc3ncc(Cl)cn3)c12 [Compound 1.043, 4-but-3-enyl-5-(5-chloropyrimidin-2-yl)oxy-2-(trifluoromethyl)quinazoline] | 3 (3=41-60%) | 4 (4=61-80%) | 5 (5=81-100%) | – | 4 (4=61-80%) | 1 (1=0-20%) | 5 (5=81-100%) | 4 (4=61-80%) | – | 5 (5=81-100%) |
| FC(F)(F)c1nc(CCC2CCOCC2)c2c(Oc3ncc(Cl)cn3)cccc2n1 [Compound 1.044] | 4 (4=61-80%) | 5 (5=81-100%) | 5 (5=81-100%) | – | 5 (5=81-100%) | 5 (5=81-100%) | 5 (5=81-100%) | 5 (5=81-100%) | – | 5 (5=81-100%) |
| N#CCCc1nc(C(F)(F)F)nc2cccc(Oc3ncc(Cl)cn3)c12 [Compound 1.046, 3-[5-(5-chloropyrimidin-2-yl)oxy-2-(trifluoromethyl)quinazolin-4-yl]propanenitrile] | 4 (4=61-80%) | 2 (2=21-40%) | – | 5 (5=81-100%) | 2 (2=21-40%) | 5 (5=81-100%) | 5 (5=81-100%) | 5 (5=81-100%) | 5 (5=81-100%) | 5 (5=81-100%) |
| Fc1cnc(Oc2cccc3nc(C(F)(F)F)nc(CCC4CC4)c23)nc1 [Compound 1.064] | 4 (4=61-80%) | – | 5 (5=81-100%) | 4 (4=61-80%) | 4 (4=61-80%) | 5 (5=81-100%) | – | 5 (5=81-100%) | 5 (5=81-100%) | 4 (4=61-80%) |
